Assay results from US12043613B2, “Inhibitors of SARM1” (Disarm Therapeutics, Inc., priority 2020, dated 2024).

What follows are compounds tested against T1, SARM1 (ARM-SAM-TIR, full length SARM1) (Homo sapiens, UniProt Q6SZW1) (assay: biochemical). Settings: SARM1 IC50 (nM), ARM-SAM-TIR lysate 5 μg/mL from NRK1-HEK293T cells, 2 h pre-incubation, 5 uM NAD+, 2 hr room temperature.
T1 sequence (Q6SZW1 with tags, fused parts or gaps): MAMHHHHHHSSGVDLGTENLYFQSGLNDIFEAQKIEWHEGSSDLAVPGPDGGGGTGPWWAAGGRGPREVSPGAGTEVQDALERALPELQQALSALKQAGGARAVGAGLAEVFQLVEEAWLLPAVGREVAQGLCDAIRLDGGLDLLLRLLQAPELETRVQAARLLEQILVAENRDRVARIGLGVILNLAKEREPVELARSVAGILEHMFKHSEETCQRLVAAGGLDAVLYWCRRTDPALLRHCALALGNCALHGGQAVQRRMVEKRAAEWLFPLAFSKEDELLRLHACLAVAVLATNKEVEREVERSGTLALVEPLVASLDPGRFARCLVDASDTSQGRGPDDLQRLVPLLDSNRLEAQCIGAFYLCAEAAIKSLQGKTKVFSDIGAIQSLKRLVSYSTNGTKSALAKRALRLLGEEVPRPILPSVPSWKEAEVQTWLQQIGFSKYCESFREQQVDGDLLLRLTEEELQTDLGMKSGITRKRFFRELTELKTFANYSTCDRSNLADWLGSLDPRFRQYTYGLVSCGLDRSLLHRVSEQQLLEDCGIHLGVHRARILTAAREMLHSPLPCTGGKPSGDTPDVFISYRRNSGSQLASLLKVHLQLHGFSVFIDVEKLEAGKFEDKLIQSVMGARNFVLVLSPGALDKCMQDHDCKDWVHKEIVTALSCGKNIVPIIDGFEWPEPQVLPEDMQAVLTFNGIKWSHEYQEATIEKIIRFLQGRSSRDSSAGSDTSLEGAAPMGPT
Procedure: This assay makes use of full length SARM1, which encompasses the ARM, SAM and TIR domains.
Preparation of ARM-SAM-TIR lysate (STL)
NRK1-HEK293T cells were seeded onto 150 cm^2 plates at 20×10^6 cells per plate. The next day, the cells were transfected with 15 g ARM-SAM-TIR expression plasmid, SEQ ID NO: 1.
The cultures were supplemented with 1 mM NR at time of transfection to minimize toxicity from ARM-SAM-TIR overexpression. Forty-eight hours after transfection, cells were harvested, pelleted by centrifugation at 1,000 rpm (Sorvall ST 16R centrifuge, Thermo Fisher), and washed once with cold PBS (0.01 M phosphate buffered saline NaCl 0.138 M; KCl 0.0027 M; pH 7.4). The cells were resuspended in PBS with protease inhibitors (cOmplete™ protease inhibitor cocktail, Roche product #11873580001) and cell lysates were prepared by sonication (Branson Sonifer 450, output=3, 20 episodes of stroke). The lysates were centrifuged (12,000×g for 10 min at 4° C.) to remove cell debris and the supernatants (containing ARM-SAM-TIR protein) were stored at −80° C. for later use in the in vitro ARM-SAM-TIR NADase assay (see below). Protein concentration was determined by the Bicinchoninic (BCA) method and used to normalize lysate concentrations.
ARM-SAM-TIR IC50 assay of Formula I compounds.
The enzymatic assay was performed in a 384-well polypropylene plate in Dulbecco's PBS buffer in a final assay volume of 20 μL. ARM-SAM-TIR lysate with a final concentration of 5 μg/mL was pre-incubated with the respective compound at 1% DMSO final assay concentration over 2h at room temperature. The reaction was initiated by addition of 5 uM final assay concentration of NAD+ as substrate. After a 2 hr room temperature incubation, the reaction was terminated with 40 μL of stop solution of 7.5% trichloroactetic acid in acetonitrile. The NAD+ and ADPR concentrations were analyzed by a RapidFire High Throughput Mass Spectrometry System (Agilent Technologies, Santa Clara, Calif.) using an API4000 triple quadrupole mass spectrometer (AB Sciex Framingham, Mass.).
With `O=C1C(Cc2ccc(Cl)cc2)CNCCN1c1nc(-c2ccncc2)n[nH]1` (single isomer, unassigned) [I-38* (peak 1)] the IC50 was 501 to 1000 nM.
`O=C1C(Cc2ccc(Cl)cc2)CNCCN1c1nc(-c2ccncc2)n[nH]1` (single isomer, unassigned) [I-38* (peak 2)] was tested, and the IC50 was > 1000 nM.
In the case of `O=C1C(Cc2ccc(F)nc2)CCN1c1nnc(-c2ccncc2)[nH]1` (single isomer, unassigned) [I-39* (peak 1)], the IC50 is reported as 101 to 500 nM.
With `O=C1C(Cc2ccc(Cl)nc2)CCCCN1c1cc(-c2ccncc2)n[nH]1` (single isomer, unassigned) [I-40* (peak 1)] the IC50 was > 1000 nM.
For `O=C1C(Cc2ccc(Cl)nc2)CCCCN1c1cc(-c2ccncc2)n[nH]1` (single isomer, unassigned) [I-40* (peak 2)], the IC50 was 101 to 500 nM.
With `Cc1c(-c2ccncc2)n[nH]c1N1CCC(Cc2cnc(Cl)c(F)c2)C1=O` (single isomer, unassigned) [I-41* (peak 1)] the IC50 was 101 to 500 nM.
With `O=C1N(c2nc(-c3ccncc3)n[nH]2)CCC1(F)Cc1ccc(Cl)nc1` (single isomer, unassigned) [I-42* (peak 1)] the IC50 was > 1000 nM.
`O=C1C(Cc2ccc(Cl)cc2)OCCN1c1cc(-c2ccncc2)n[nH]1` (single isomer, unassigned) [I-47* (peak 1)] was tested, and the IC50 was 51 to 100 nM.
With `O=C1C(Cc2ccc(Cl)cc2)OCCN1c1cc(-c2ccncc2)n[nH]1` (single isomer, unassigned) [I-47* (peak 2)] the IC50 was > 1000 nM.
For `Cc1c(-c2ccncc2)n[nH]c1N1CCC(Cc2ccc(Cl)nc2)C1=O` (single isomer, unassigned) [I-48* (peak 1)], the IC50 was 101 to 500 nM.
Work on `Cc1c(-c2ccncc2)n[nH]c1N1CCC(Cc2ccc(F)c(F)c2)C1=O` (single isomer, unassigned) [I-49* (peak 1)] yielded an IC50 of 101 to 500 nM.
In the case of `Cc1c(-c2ccncc2)n[nH]c1N1CCC(Cc2ccc(F)c(F)c2)C1=O` (single isomer, unassigned) [I-49* (peak 2)], the IC50 is reported as 51 to 100 nM.
In the case of `CC1(Cc2ccc(Cl)cc2)CCCN(c2nc(-c3ccncc3)n[nH]2)C1=O` (single isomer, unassigned) [I-54* (peak 1)], the IC50 is reported as 501 to 1000 nM.
For `CC1(Cc2ccc(Cl)cc2)CCCN(c2nc(-c3ccncc3)n[nH]2)C1=O` (single isomer, unassigned) [I-54* (peak 2)], the IC50 was 101 to 500 nM.
In the case of `O=C1C(Cc2ccc(Cl)nc2)CCCN1c1nnc(-c2ccncc2)[nH]1` (single isomer, unassigned) [I-55* (peak 1)], the IC50 is reported as 51 to 100 nM.
With `N[C@H]1CC(Cc2ccc(Cl)nc2)C(=O)N(c2cc(-c3ccncc3)n[nH]2)C1` (single isomer, unassigned) [I-60* (peak 1)] the IC50 was > 1000 nM.
`N[C@H]1CC(Cc2ccc(Cl)nc2)C(=O)N(c2cc(-c3ccncc3)n[nH]2)C1` (single isomer, unassigned) [I-60* (peak 2)] showed an IC50 of 101 to 500 nM.
`O=C1C(Cc2cnc(Cl)c(F)c2)CCN1c1cc(-c2ccncc2)n[nH]1` (single isomer, unassigned) [I-65* (peak 1)] was tested, and the IC50 was < 50 nM.
With `O=C1C(Cc2cnc(Cl)c(F)c2)CCCN1c1cc(-c2ccncc2)n[nH]1` (single isomer, unassigned) [I-66* (peak 1)] the IC50 was < 50 nM.
`O=C1C(Cc2cnc(Cl)c(F)c2)CCCN1c1cc(-c2ccncc2)n[nH]1` (single isomer, unassigned) [I-66* (peak 2)] gave an IC50 of 101 to 500 nM.
`O=C1C(Cc2ccc(F)nc2)CCN1c1cc(-c2ccncc2)n[nH]1` (single isomer, unassigned) [I-67* (peak 1)] showed an IC50 of 51 to 100 nM.
For `O=C1C(Cc2ccc(F)nc2)CCN1c1cc(-c2ccncc2)n[nH]1` (single isomer, unassigned) [I-67* (peak 2)], the IC50 was < 50 nM.
For `[2H]C([2H])(c1ccc(Cl)nc1)C1([2H])C(=O)N(c2cc(-c3ccncc3)n[nH]2)C([2H])([2H])C([2H])([2H])C1([2H])[2H]` (single isomer, unassigned) [I-79* (peak 1)], the IC50 was < 50 nM.
Work on `[2H]C([2H])(c1ccc(Cl)nc1)C1([2H])C(=O)N(c2cc(-c3ccncc3)n[nH]2)C([2H])([2H])C([2H])([2H])C1([2H])[2H]` (single isomer, unassigned) [I-79* (peak 2)] yielded an IC50 of 101 to 500 nM.
